Experimental findings from patent US12398120B2, “Substituted hydantoinamides as ADAMTS7 antagonists” (BAYER AKTIENGESELLSCHAFT, priority 2019, dated 2025) are described below.

Some results are limits rather than exact numbers.

Chain of ADAMTS4 (O75173 213-685): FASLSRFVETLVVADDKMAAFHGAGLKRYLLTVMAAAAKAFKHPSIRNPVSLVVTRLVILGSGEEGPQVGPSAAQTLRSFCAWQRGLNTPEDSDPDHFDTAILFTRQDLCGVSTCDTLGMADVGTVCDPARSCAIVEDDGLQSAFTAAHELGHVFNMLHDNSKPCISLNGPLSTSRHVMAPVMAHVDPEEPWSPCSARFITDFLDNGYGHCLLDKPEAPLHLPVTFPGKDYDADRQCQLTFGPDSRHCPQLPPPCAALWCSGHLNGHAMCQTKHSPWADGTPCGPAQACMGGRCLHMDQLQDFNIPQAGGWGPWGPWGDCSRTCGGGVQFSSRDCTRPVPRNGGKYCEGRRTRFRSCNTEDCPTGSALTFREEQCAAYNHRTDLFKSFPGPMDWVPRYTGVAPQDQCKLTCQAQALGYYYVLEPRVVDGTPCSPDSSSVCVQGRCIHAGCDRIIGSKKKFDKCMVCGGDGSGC

The assay has as its target ADAMTS4 (Homo sapiens (Human), UniProt O75173). Briefly: Selectivity assay for ADAMTS-7 modulators: ADAMTS4 (FRET substrate). The following applies: ADAMTS4 (R&D 4307-AD) 50 nM, substrate Dabcyl-EEVKAKVQPY-Glu(Edans)-NH2 1 μM, 120 min, 32° C. It is filed as biochemical. The method, boiled down: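 Activity read as rising fluorescence after a FRET substrate is cleaved by human ADAMTS4, with reactions started by substrate addition to wells holding compound or DMSO. Percent inhibition plotted against concentration gave IC50.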
Take `Cc1nn(C)cc1C1(CNC(=O)c2ccccc2-c2ccc(C(F)(F)F)nc2)NC(=O)NC1=O` (racemic) [Example 55, Rac-N-{[4-(1,3-Dimethyl-1H-Pyrazol-4-Yl)-2,5-Dioxoimidazolidin-4-Yl]Methyl}-2-[6-(Trifluoromethyl)Pyridin-3-Yl]Benzamide]: the IC50 amounted to 30 µM. The molecule `O=C1NC(=O)[C@](CNC(=O)c2cccnc2-c2ccc(C(F)(F)F)cc2)(C2CC2)N1` [Example 82, N-{[(4R)-4-Cyclopropyl-2,5-Dioxoimidazolidin-4-Yl]Methyl}-2-[4-(Trifluoromethyl)Phenyl]Pyridine-3-Carboxamide] yielded an IC50 greater than 50 µM. The same measure for `O=C1NC(=O)C(CNC(=O)c2ccccc2-c2ccc(C(F)(F)F)nc2)(c2ccccc2)N1` (racemic) [Example 50, Rac-N-[(2,5-Dioxo-4-Phenylimidazolidin-4-Yl)Methyl]-2-[6-(Trifluoromethyl)Pyridin-3-Yl]Benzamide]: 43 µM; for `O=C1NC(=O)[C@](CNC(=O)c2ccc(F)cc2-c2ccc(C3CC3(F)F)cc2)(C2CC2)N1` (stereo partly drawn) [Example 142, N-{[(4R)-4-Cyclopropyl-2,5-Dioxoimidazolidin-4-Yl]Methyl}-4′-(2,2-Difluorocyclopropyl)-5-Fluoro[1,1′-Biphenyl]-2-Carboxamide]: 18 µM. The figure for `O=C1NC(=O)C(CNC(=O)c2ccc(F)c(F)c2-c2ccc(C(F)(F)F)cc2)(c2ccnn2-c2ccccc2)N1` (racemic) [Example 315, Rac-N-{[2,5-Dioxo-4-(1-Phenyl-1H-Pyrazol-5-Yl)Imidazolidin-4-Yl]Methyl}-5,6-Difluoro-4′-(Trifluoromethyl)[Biphenyl]-2-Carboxamide] is 1.3 µM; for `O=C1NC(=O)[C@](CNC(=O)c2ccccc2-c2ccc(F)cc2)(C2CC2)N1` [Example 129, N-{[(4R)-4-Cyclopropyl-2,5-Dioxoimidazolidin-4-Yl]Methyl}-4′-Fluoro[Biphenyl]-2-Carboxamide] it is 8.7 µM; for `Cc1ccc(-c2cccc(Cl)c2C(=O)NC[C@@]2(C3CC3)NC(=O)NC2=O)cc1` [Example 222, 3-Chloro-N-{[(4R)-4-Cyclopropyl-2,5-Dioxoimidazolidin-4-Yl]Methyl}-4′-Methyl[1,1′-Biphenyl]-2-Carboxamide] it is 3 µM. The same measure for `O=C1NC(=O)C(CNC(=O)c2ccc(F)cc2-c2ccc(C(F)(F)F)cc2)(c2ncsc2C2CC2)N1` (racemic) [Example 272, Rac-N-{[4-(5-Cyclopropyl-1,3-Thiazol-4-Yl)-2,5-Dioxoimidazolidin-4-Yl]Methyl}-5-Fluoro-4′-(Trifluoromethyl)[Biphenyl]-2-Carboxamide]: 7.8 µM. In turn, `Cc1ccc(-c2cc(C(F)(F)F)ccc2C(=O)NC[C@@]2(C3CC3)NC(=O)NC2=O)cc1` [Example 99, N-{[(4R)-4-Cyclopropyl-2,5-Dioxoimidazolidin-4-Yl]Methyl}-4′-Methyl-5-(Trifluoromethyl)[Biphenyl]-2-Carboxamide] gave an IC50 of 4.5 µM. The figure for `Cn1ccnc1C1(CNC(=O)c2cc(F)ccc2-c2ccc(Cl)cc2)NC(=O)NC1=O` (single isomer, unassigned; ent-4) [Example 160, Ent-4′-Chloro-4-Fluoro-N-{[4-(1-Methyl-1H-Imidazol-2-Yl)-2,5-Dioxoimidazolidin-4-Yl]Methyl}[Biphenyl]-2-Carboxamide] is 0.83 µM.

The molecule `Cc1cnn(C)c1C1(CNC(=O)c2ccccc2-c2ccc(C(F)(F)F)cc2)NC(=O)NC1=O` (racemic) [Example 61, Rac-N-{[4-(1,4-Dimethyl-1H-Pyrazol-5-Yl)-2,5-Dioxoimidazolidin-4-Yl]Methyl}-4′-(Trifluoromethyl)[Biphenyl]-2-Carboxamide] registered an IC50 of 7.4 µM. The same measure for `Cn1nccc1C1(CNC(=O)c2ccc(F)cc2-c2ccc(C(F)(F)F)cc2)NC(=O)NC1=O` (single isomer, unassigned; ent-5) [Example 184, Ent-5-Fluoro-N-{[4-(1-Methyl-1H-Pyrazol-5-Yl)-2,5-Dioxoimidazolidin-4-Yl]Methyl}-4′-(Trifluoromethyl)[Biphenyl]-2-Carboxamide]: 9.37 µM; for `Cn1ccnc1C1(CNC(=O)c2ccc(F)cc2-c2ccc(C(F)(F)F)cc2)NC(=O)NC1=O` (single isomer, unassigned; ent-5) [Example 150, Ent-5-Fluoro-N-{[4-(1-Methyl-1H-Imidazol-2-Yl)-2,5-Dioxoimidazolidin-4-Yl]Methyl}-4′-(Trifluoromethyl)[Biphenyl]-2-Carboxamide]: 1.85 µM. The same measure for `O=C1NC(=O)C(CNC(=O)c2ccc(F)cc2-c2ccc(C(F)(F)F)cc2)(c2ncsc2C(F)(F)F)N1` (racemic) [Example 267, Rac-N-({2,5-Dioxo-4-[5-(Trifluoromethyl)-1,3-Thiazol-4-Yl]Imidazolidin-4-Yl}Methyl)-5-Fluoro-4′-(Trifluoromethyl)[Biphenyl]-2-Carboxamide]: 19 µM; for `Cc1nscc1C1(CNC(=O)c2ccccc2-c2ccc(C(F)(F)F)nc2)NC(=O)NC1=O` (racemic) [Example 49, Rac-N-{[4-(3-Methyl-1,2-Thiazol-4-Yl)-2,5-Dioxoimidazolidin-4-Yl]Methyl}-2-[6-(Trifluoromethyl)Pyridin-3-Yl]Benzamide]: 22 µM. `O=C1NC(=O)C(CNC(=O)c2ccc(F)c(F)c2-c2ccc(C(F)(F)F)cc2)(c2cscn2)N1` (stereo not drawn) [Example 278, Ent-N-{[2,5-Dioxo-4-(1,3-Thiazol-4-Yl)Imidazolidin-4-Yl]Methyl}-5,6-Difluoro-4′-(Trifluoromethyl)[Biphenyl]-2-Carboxamide]: the IC50 came to 8.6 µM. As to `O=C1NC(=O)C(CNC(=O)c2ccc(F)cc2-c2ccc(Cl)cc2)(C2CC(F)(F)C2)N1` (racemic) [Example 245, Rac-4′-Chloro-N-{[4-(3,3-Difluorocyclobutyl)-2,5-Dioxoimidazoidin-4-Yl]Methyl}-5-Fluoro[Biphenyl]-2-Carboxamide], the IC50 was greater than 50 µM. The same measure for `N#Cc1ccc(-c2ccccc2C(=O)NC[C@@]2(C3CC3)NC(=O)NC2=O)cc1` [Example 223, 4′-Cyano-N-{[(4R)-4-Cyclopropyl-2,5-Dioxoimidazolidin-4-Yl]Methyl}[1,1′-Biphenyl]-2-Carboxamide]: 26 µM; for `Cc1ncn(C)c1C1(CNC(=O)c2ccc(F)cc2-c2ccc(C(F)(F)F)cc2)NC(=O)NC1=O` (racemic) [Example 286, Rac-N-{[4-(1,4-Dimethyl-1H-Imidazol-5-Yl)-2,5-Dioxoimidazolidin-4-Yl]Methyl}-5-Fluoro-4′-(Trifluoromethyl)[Biphenyl]-2-Carboxamide]: 9.8 µM; for `Cc1nsnc1C1(CNC(=O)c2ccccc2-c2ccc(C(F)(F)F)nc2)NC(=O)NC1=O` (racemic) [Example 53, Rac-N-{[4-(4-Methyl-1,2,5-Thiadiazol-3-Yl)-2,5-Dioxoimidazolidin-4-Yl]Methyl}-2-[6-(Trifluoromethyl)Pyridin-3-Yl]Benzamide]: 41 µM. Consider `O=C1NC(=O)C(CNC(=O)c2cc(F)ccc2-c2ccc(C(F)(F)F)cc2)(c2ncsc2C(F)(F)F)N1` (racemic) [Example 265, Rac-N-({2,5-Dioxo-4-[5-(Trifluoromethyl)-1,3-Thiazol-4-Yl]Imidazolidin-4-Yl}Methyl)-4-Fluoro-4′-(Trifluoromethyl)[Biphenyl]-2-Carboxamide], for which the IC50 was determined as 9.1 µM. For the molecule `O=C1NC(=O)C(CNC(=O)c2ccccc2-c2ccc(C(F)(F)F)cc2)(c2ncsc2C2CC2)N1` (stereo not drawn) [Example 271, Ent-N-{[4-(5-Cyclopropyl-1,3-Thiazol-4-Yl)-2,5-Dioxoimidazolidin-4-Yl]Methyl}-4′-(Trifluoromethyl)[Biphenyl]-2-Carboxamide], the IC50 turned out to be 2.7 µM. The same measure for `Cn1nccc1C1(CNC(=O)c2ccccc2-c2ccc(Cl)cc2)NC(=O)NC1=O` (single isomer, unassigned; ent-4) [Example 182, Ent-4′-Chloro-N-{[4-(1-Methyl-1H-Pyrazol-5-Yl)-2,5-Dioxoimidazolidin-4-Yl]Methyl}[Biphenyl]-2-Carboxamide]: 4.03 µM; for `Cn1nccc1C1(CNC(=O)c2c(Cl)cccc2-c2ccc(Cl)cc2)NC(=O)NC1=O` (single isomer, unassigned; ent-3) [Example 189, Ent-3,4′-Dichloro-N-{[4-(1-Methyl-1H-Pyrazol-5-Yl)-2,5-Dioxoimidazolidin-4-Yl]Methyl}[Biphenyl]-2-Carboxamide]: 3.65 µM.

`Cn1ccnc1C1(CNC(=O)c2cc(F)c(F)cc2-c2ccc(C3CC3(F)F)cc2)NC(=O)NC1=O` (stereo not shown) [Example 143, 4′-(2,2-Difluorocyclopropyl)-4,5-Difluoro-N-{[4-(1-Methyl-1H-Imidazol-2-Yl)-2,5-Dioxoimidazolidin-4-Yl]Methyl}[1,1′-Biphenyl]-2-Carboxamide] returned an IC50 of 4.6 µM. Regarding `Cn1ccnc1C1(CNC(=O)c2cc(F)c(F)cc2-c2ccc(C(F)(F)F)cc2)NC(=O)NC1=O` (single isomer, unassigned; ent-4) [Example 154, Ent-4,5-Difluoro-N-{[4-(1-Methyl-1H-Imidazol-2-Yl)-2,5-Dioxoimidazolidin-4-Yl]Methyl}-4′-(Trifluoromethyl)[Biphenyl]-2-Carboxamide], the IC50 was 3.95 µM. Regarding `Cc1cnsc1C1(CNC(=O)c2ccccc2-c2ccc(C(F)(F)F)cc2)NC(=O)NC1=O` (racemic) [Example 97, Rac-N-{[4-(4-Methyl-1,2-Thiazol-5-Yl)-2,5-Dioxoimidazolidin-4-Yl]Methyl}-4′-(Trifluoromethyl)[Biphenyl]-2-Carboxamide], the IC50 was determined as 7.2 µM. The same measure for `Cc1nscc1C1(CNC(=O)c2ccc(F)c(F)c2-c2ccc(C(F)(F)F)cc2)NC(=O)NC1=O` (racemic) [Example 306, Rac-5,6-Difluoro-N-{[4-(3-Methyl-1,2-Thiazol-4-Yl)-2,5-Dioxoimidazolidin-4-Yl]Methyl}-4′-(Trifluoromethyl)[Biphenyl]-2-Carboxamide]: 16 µM.
